Columns and labels:
NK-cells = details: shown in WO2023/275025; cited from earlier work
[1] = tested on: Vdelta2 gammadelta T-cells; assay: Functional assay: Vdelta2 gammadelta T-cell activation (CD107a, IFNγ) after co-culture of PBMCs with pretreated Raji cells; type: cell-based, human; set-up: key to IFNγ production by Vdelta2 populations, EC50: †: incomplete curve saturation (no EC50 calculation possible); ††: low number of IFNγ-positive cells, no reliable EC50 calculation possible; details: Donor two; Raji cells pre-treated overnight, 6 hours coculture with PBMCs
Protocol: Multiple synthesized linker drug compounds were conjugated to rituximab (anti-CD20) and resulting ADCs were tested for their ability to bind Raji cells and to activate Vdelta2 gammadelta T-cells after overnight incubation with CD20-positive Raji cells. The linker drug compounds that were conjugated to rituximab, and resulting ADCs, are within the list reflected in Table 1. The pretreated Raji cells were cocultured with peripheral blood mononuclear cells (PBMCs) and activation (IFNγ production) and degranulation (CD107a) of Vdelta2 gammadelta T-cells and NK-cells was determined using multicolor flow cytometry.
For stimulation with ADCs according to the invention, Raji cells were harvested, diluted to a concentration of 5×10^6 cells/mL and 50 μL (equivalent to 250,000 cells/well) of this cell suspension was seeded into a 96-well plate. […] The recovered PBMCs were harvested, counted and diluted to a concentration of 10×10^6 cells/mL in CGM, and 50 μL/well (equivalent to 0.5×10^6 cells/well) was added to the Raji cells. […]

[2] = tested on: CD20-positive Burkitt's Lymphoma human tumor cell line Raji; assay: Cellular binding to Raji cells (flow cytometry, MFI); details: 30 minutes at 4° C.
Protocol: The CD20-positive Burkitt's Lymphoma human tumor cell line Raji (DSMZ, the German collection of Microorganisms and cell cultures GmbH) was used for in vitro experiments. Raji cells were cultured in complete growth medium (CGM): RPMI-1640 (Lonza) supplemented with 10% Heat-inactivated (HI) Fetal Bovine Serum (FBS) (Gibco) and 80 U/mL Penicillin-Streptomycin solution (Lonza). Raji cells were maintained at 37° C. in a humidified incubator containing 5% CO2 and sub-cultured twice a week. […] Fluorescence intensities were determined by flow cytometry using the NovoCyte (Agilent) and determined as the median fluorescence intensity (MFI). […] EC50 values were calculated in GraphPad Prism as the concentration in μg/mL that gives a response halfway between bottom and top of the curve. […]
These ADCs were tested for their ability to bind Raji cells (using a binding assay, as described in Example 5) and to activate Vdelta2 gammadelta T-cells after overnight incubation with CD20-positive Raji cells. The pretreated Raji cells were cocultured with peripheral blood mononuclear cells (PBMCs) and activation (IFNγ production) and degranulation (CD107a) of Vdelta2 gammadelta T-cells and NK-cells was determined using multicolor flow cytometry, as described for the Functional assay in Example 5.

Substance: Rituximab: anti-CD20 antibody rituximab [reference compound]
- Activation of NK-cells (in words) (NK-cells): induced activation of NK-cells
- CD107a production by Vdelta2 populations, EC50 [1]: 0.094 µg/mL
- IFNγ production by Vdelta2 populations, EC50 [1]: ††
- EC50 binding to Raji cells [2]: 3.30 µg/mL

Source: patent US20260207768A1, “NOVEL LINKER DRUGS COMPRISING PHOSPHOANTIGENS, NOVEL CONJUGATES AND THEIR USE IN THERAPY” (priority 2022, published 2026)
